Measurements reported in PMC9447987, “Long-term memory CD8^+ T cells specific for SARS-CoV-2 in individuals who received the BNT162b2 mRNA vaccine” (Nature Communications, 2022).
Read-outs that look alike come from different tables or passages of the source.

How the values were obtained:
HLA-A*24:02 = HLA-A*24:02 (Homo sapiens, UniProt P04439, D101N/D140Y/D185E/E176V/E190D/F33S/G103R/G107R/I119L/I121M/I306V/K335N/L105A/L180Q/L300P/N151K/N90K/Q86E/Q94H/R106L/R138H/R89G/T104I/T345S/V100E/W191G/Y123F); assay: HLA stabilization assay using RMA-S-A2402 cells; type: binding; settings: for MFI, HLA-A2402 (APC), representative staining: RMA-S-A2402 cells, Suppl. Fig. 3b (for Fig. 4a, 4b), peptide(-) 14.8, 26 °C (Maximum) 32.7
[1] = tested on: HLA-A*24:02-restricted CD8+ T cells; type: cell-based, human
[2] = convalescent donor C2, 45.290 weeks since PCR-confirmed diagnosis, […], peptide-pulsed C1R-A2402
[3] = convalescent donor C3, 2.430 weeks since PCR-confirmed diagnosis, […], peptide-pulsed C1R-A2402
[4] = convalescent donor C4, 35.000 weeks since PCR-confirmed diagnosis, […], peptide-pulsed C1R-A2402
[5] = convalescent donor C5, 41.430 weeks since PCR-confirmed diagnosis, […], peptide-pulsed C1R-A2402
[6] = convalescent donor C6, 20.000 weeks since PCR-confirmed diagnosis, […], peptide-pulsed C1R-A2402
[7] = convalescent donor C7, 21.710 weeks since PCR-confirmed diagnosis, […], peptide-pulsed C1R-A2402
[8] = convalescent donor C8, 47.860 weeks since PCR-confirmed diagnosis, […], peptide-pulsed C1R-A2402
[9] = convalescent donor C9, 21.860 weeks since PCR-confirmed diagnosis, […], peptide-pulsed C1R-A2402
[10] = convalescent donor C10, 24.570 weeks since PCR-confirmed diagnosis, […], peptide-pulsed C1R-A2402
[11] = convalescent donor C11, 24.290 weeks since PCR-confirmed diagnosis, […], peptide-pulsed C1R-A2402
[12] = vaccinated donor V1, 19.000 weeks since 2nd dose, […], C1R-A2402 pre-pulsed with 1 μM peptide
[13] = vaccinated donor V2, 9.570 weeks since 2nd dose, […], C1R-A2402 pre-pulsed with 1 μM peptide
[14] = vaccinated donor V3, 8.860 weeks since 2nd dose, […], C1R-A2402 pre-pulsed with 1 μM peptide
[15] = vaccinated donor V4, 10.430 weeks since 2nd dose, […], C1R-A2402 pre-pulsed with 1 μM peptide
[16] = vaccinated donor V5, 10.570 weeks since 2nd dose, […], C1R-A2402 pre-pulsed with 1 μM peptide
[17] = vaccinated donor V6, 9.570 weeks since 2nd dose, […], C1R-A2402 pre-pulsed with 1 μM peptide
[18] = vaccinated donor V7, 10.140 weeks since 2nd dose, […], C1R-A2402 pre-pulsed with 1 μM peptide
[19] = vaccinated donor V8, 9.860 weeks since 2nd dose, […], C1R-A2402 pre-pulsed with 1 μM peptide
[20] = vaccinated donor V9, 20.570 weeks since 2nd dose, […], C1R-A2402 pre-pulsed with 1 μM peptide
[21] = vaccinated donor V10, 2.000 weeks since 2nd dose, […], C1R-A2402 pre-pulsed with 1 μM peptide
[22] = vaccinated donor V11, 1.430 weeks since 2nd dose, […], C1R-A2402 pre-pulsed with 1 μM peptide
[23] = vaccinated donor V12, 1.000 weeks since 2nd dose, […], C1R-A2402 pre-pulsed with 1 μM peptide
[24] = vaccinated donor V13, 9.000 weeks since 2nd dose, […], C1R-A2402 pre-pulsed with 1 μM peptide
[25] = vaccinated donor V14, 2.000 weeks since 2nd dose, […], C1R-A2402 pre-pulsed with 1 μM peptide
[26] = vaccinated donor V15, 6.860 weeks since 2nd dose, […], C1R-A2402 pre-pulsed with 1 μM peptide
[27] = vaccinated donor V16, 8.860 weeks since 2nd dose, […], C1R-A2402 pre-pulsed with 1 μM peptide
[28] = vaccinated donor V17, 4.140 weeks since 2nd dose, […], C1R-A2402 pre-pulsed with 1 μM peptide

| Sequence | MFI, HLA-A2402 (APC), representative staining (HLA-A*24:02) | IFNg-producing cells among CD8 T cells (%) [1, 2] | IFNg-producing cells among CD8 T cells (%) [1, 3] | IFNg-producing cells among CD8 T cells (%) [1, 4] | IFNg-producing cells among CD8 T cells (%) [1, 5] | IFNg-producing cells among CD8 T cells (%) [1, 6] | IFNg-producing cells among CD8 T cells (%) [1, 7] | IFNg-producing cells among CD8 T cells (%) [1, 8] | IFNg-producing cells among CD8 T cells (%) [1, 9] | IFNg-producing cells among CD8 T cells (%) [1, 10] | IFNg-producing cells among CD8 T cells (%) [1, 11] | IFNg-producing cells among CD8 T cells (%) [1, 12] | IFNg-producing cells among CD8 T cells (%) [1, 13] | IFNg-producing cells among CD8 T cells (%) [1, 15] | IFNg-producing cells among CD8 T cells (%) [1, 16] | IFNg-producing cells among CD8 T cells (%) [1, 17] | IFNg-producing cells among CD8 T cells (%) [1, 18] | IFNg-producing cells among CD8 T cells (%) [1, 19] | IFNg-producing cells among CD8 T cells (%) [1, 20] | IFNg-producing cells among CD8 T cells (%) [1, 21] | other results |
| --- | --- | --- | --- | --- | --- | --- | --- | --- | --- | --- | --- | --- | --- | --- | --- | --- | --- | --- | --- | --- | --- |
| AYSNNSIAI [S-AI9] | 36.2 | 0.000% | 0.037% | 0.000% | 0.000% | 0.000% | 0.180% | 0.160% | 0.510% | 0.000% | 0.000% | 0.918% | 0% | 0% | 0.54% | 0.014% | 0% | 0% | 0.488% | 0% | IFNg-producing cells among CD8 T cells (%) [1, 14]: 0%; IFNg-producing cells among CD8 T cells (%) [1, 22]: 0.134%; IFNg-producing cells among CD8 T cells (%) [1, 23]: 0%; IFNg-producing cells among CD8 T cells (%) [1, 24]: 0.166%; IFNg-producing cells among CD8 T cells (%) [1, 25]: 0%; IFNg-producing cells among CD8 T cells (%) [1, 26]: 0%; IFNg-producing cells among CD8 T cells (%) [1, 27]: 0%; IFNg-producing cells among CD8 T cells (%) [1, 28]: 0% |
| EYVSQPFLM [S-EM9] | 38.7 | 0.455% | 0.097% | 0.355% | 0.063% | 0.000% | 0.160% | 0.480% | 0.000% | 0.650% | 0.000% | 0.75% | 0.88% | 0% | 0.271% | 0.032% | 0% | 0% | 0% | 0.23% | IFNg-producing cells among CD8 T cells (%) [1, 14]: 0.063%; IFNg-producing cells among CD8 T cells (%) [1, 22]: 0.827%; IFNg-producing cells among CD8 T cells (%) [1, 23]: 0%; IFNg-producing cells among CD8 T cells (%) [1, 24]: 0.062%; IFNg-producing cells among CD8 T cells (%) [1, 25]: 0%; IFNg-producing cells among CD8 T cells (%) [1, 26]: 0%; IFNg-producing cells among CD8 T cells (%) [1, 27]: 0.187%; IFNg-producing cells among CD8 T cells (%) [1, 28]: 0% |
| GYLQPRTFLL [S-GL10] | 15.2 | 0.450% | 0.140% | 1.440% | 0.000% | 0.260% | 0.000% | 0.120% | 0.130% | 0.000% | 0.000% | 0% | 0% | 0.245% | 0.041% | 0% | 0% | 0.018% | 0.481% | 0.057% | Freq of responder (%) ([1]; of 17 vaccinated HLA-A*24:02+ individuals (Fig. 4b)): 5.9%; Resp: number of responders (individuals with epitope-specific CD8+ T cells) ([1]; of 17 vaccinated HLA-A*24:02+ individuals, […], 1 μM peptide): one; IFNg-producing cells among CD8 T cells (%) [1, 14]: 0.487%; IFNg-producing cells among CD8 T cells (%) [1, 22]: 0.244%; IFNg-producing cells among CD8 T cells (%) [1, 23]: 1.194%; IFNg-producing cells among CD8 T cells (%) [1, 24]: 0%; IFNg-producing cells among CD8 T cells (%) [1, 25]: 0.774%; IFNg-producing cells among CD8 T cells (%) [1, 26]: 0.234%; IFNg-producing cells among CD8 T cells (%) [1, 27]: 0%; IFNg-producing cells among CD8 T cells (%) [1, 28]: 0% |
| IYQTSNFRV [S-IV9] | 33.2 | 0.000% | 0.090% | 0.000% | 0.000% | 0.340% | 0.260% | 0.060% | 0.000% | 0.160% | 0.000% | 0% | 0.595% | 0% | 0% | 0.265% | 0% | 0% | 0% | 0% | IFNg-producing cells among CD8 T cells (%) [1, 14]: 0.717%; IFNg-producing cells among CD8 T cells (%) [1, 22]: 0.241%; IFNg-producing cells among CD8 T cells (%) [1, 23]: 0%; IFNg-producing cells among CD8 T cells (%) [1, 24]: 0%; IFNg-producing cells among CD8 T cells (%) [1, 25]: 0%; IFNg-producing cells among CD8 T cells (%) [1, 26]: 0.005%; IFNg-producing cells among CD8 T cells (%) [1, 27]: 0.261%; IFNg-producing cells among CD8 T cells (%) [1, 28]: 0% |
| RFDNPVLPF [S-RF9] | 10.5 | 0.770% | 0.050% | 1.110% | 0.000% | 0.000% | 0.000% | 0.000% | 0.000% | 0.000% | 0.000% | 0% | 0.296% | 0.333% | 0.15% | 0% | 0% | 0% | 0.769% | 0% | binding to HLA-A*24:02 (in words) (HLA-A*24:02; […], 16 peptides tested at 100 μM): did not bind; IFNg-producing cells among CD8 T cells (%) [1, 22]: 0%; IFNg-producing cells among CD8 T cells (%) [1, 23]: 0.495%; IFNg-producing cells among CD8 T cells (%) [1, 24]: 0.076%; IFNg-producing cells among CD8 T cells (%) [1, 25]: 0.633%; IFNg-producing cells among CD8 T cells (%) [1, 26]: 0%; IFNg-producing cells among CD8 T cells (%) [1, 27]: 0.051%; IFNg-producing cells among CD8 T cells (%) [1, 28]: 0% |
